In US20100022584A1, “Modulation of Glutamine Synthetase Activity” (priority 2006, published 2010):
Where a chain is given by its changes, count along the chain named.

Experiments:
Assay in all cases: HPLC forward-reaction glutamine synthetase assay with serine protease inhibitors
Format in all cases: biochemical, E. coli
[1] = target: T1, glutamine synthetase mutant S53A Y397V (Escherichia coli, UniProt P0A9C5, S54A/Y398V); details: 1 mM inhibitor; for % Reduction in ADP-based Specific Activity / % Reduction in Glutamine-based Specific Activity: 60 min pre-incubation, vs no-inhibitor control, positive = activity increased; for % Conversion: glutamine-based divided by ADP-based specific activity
T1 construct: made in house; host or cells: E. coli YMC11 (glutamine synthetase auxotroph), pBluescript II SK+
T1 sequence (P0A9C5 2-469 S54A/Y398V limits assumed): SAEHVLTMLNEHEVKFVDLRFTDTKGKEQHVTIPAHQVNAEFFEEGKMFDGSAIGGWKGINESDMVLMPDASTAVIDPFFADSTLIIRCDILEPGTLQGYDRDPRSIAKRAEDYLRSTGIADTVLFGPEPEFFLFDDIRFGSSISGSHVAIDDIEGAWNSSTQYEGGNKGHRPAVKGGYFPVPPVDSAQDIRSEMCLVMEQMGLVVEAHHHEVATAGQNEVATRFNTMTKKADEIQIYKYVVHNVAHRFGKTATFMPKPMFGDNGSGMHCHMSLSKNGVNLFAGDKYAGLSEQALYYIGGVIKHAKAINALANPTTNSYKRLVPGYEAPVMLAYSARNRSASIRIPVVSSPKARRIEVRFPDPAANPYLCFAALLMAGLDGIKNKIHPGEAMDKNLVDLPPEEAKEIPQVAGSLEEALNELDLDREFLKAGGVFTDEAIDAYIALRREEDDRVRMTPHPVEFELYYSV
Protocol: (§1) This assay was set up to measure glutamine synthetase activity according to the forward reaction, and measures the amount of glutamine formed from […] of L-glutamate in the presence of MnCO3-ATP (the basis of one reaction) and MgATP (the basis of a second reaction). In addition, the amount of ADP formed is also measured in a separate assay, using the same reagents.
(§2) All enzyme preparations were adjusted to the same concentration of protein, and added to the assay mixture in a volume of 50 μl. The addition of the enzyme started the reaction, which was then allowed to proceed for 1 hour. The reaction was stopped by the addition of 6 μl of a 50% solution of trichloroacetic acid. Each assay was then aliquoted into 4 HPLC vials (150 μl per vial), two of which were assayed for glutamate and glutamine using a Phenomenex Luna 5 μC18 Column on an Agilent 100 HPLC instrument. The ATP/ADP assays were run on a Chromolith Performance RP-18c column also using an Agilent 100 HPLC instrument.
(§3) As it is believed that two putative catalytic triads, similar to those in the serine proteases, are involved in the reaction mechanism of glutamine synthetase, certain of the mutants were also assayed by HPLC in the presence of the serine protease inhibitors, AEBSF and PMSF, in order to assess the effect that these inhibitors had on the enzyme. The enzymes assessed were the adenylylated WT enzyme, the deadenylylated WT enzyme, and the mutant enzymes S52A, S52A Y397V, S53A, S53A Y397V, S52A S53A and S52A S53A Y397V. The enzymes were pre-incubated for 60 minutes in the presence of 1 mM PMSF or 1 mM AEBSF. A control reaction was set up for each enzyme, which contained no inhibitor. Each enzyme was then added to assays set up as described above. The assay was allowed to proceed for 60 minutes, then stopped by the addition of […] of 50% TCA, after which they were analysed by HPLC. All assays were run in triplicate.
(§4) In addition to the γ-glutamyl transferase assays, assays were also developed to measure the rate of conversion of ATP and glutamate to ADP and glutamine by HPLC. These were set up as single assays but analysed separately for glutamate and glutamine and ATP and ADP. The conversion rates for glutamate to glutamine, in both the presence of Mn^2+ and Mg^2+ by glutamine synthetase, is referred to as the […] specific activity and is presented in μmoles/min/mg protein. The conversion rates for ATP to ADP, in both the presence of Mn^2+ and Mg^2+ by glutamine synthetase, is referred to as the ADP-based specific activity and is presented in μmoles/min/mg protein. The percentage of conversion was also calculated by dividing the glutamine-based specific activity by the ADP-based specific activity, and this value is interpreted as the ability of the enzyme to complete both steps of the reaction, i.e., glutamate to glutamine and ATP to ADP, at an equivalent level of efficiency.

[2] = target: T2, adenylylated WT enzyme, WT (AD) glutamine synthetase (Escherichia coli, UniProt P0A9C5); details: 1 mM inhibitor; for % Reduction in ADP-based Specific Activity / % Reduction in Glutamine-based Specific Activity / % Conversion: WT (AD); for % Reduction in ADP-based Specific Activity / % Reduction in Glutamine-based Specific Activity: 60 min pre-incubation, vs no-inhibitor control, positive = activity increased; for % Conversion: glutamine-based divided by ADP-based specific activity; for inhibition of the enzyme (in words): adenylylated WT enzyme, HPLC assays
T2 construct: made in house; host or cells: E. coli carrying pBSK-ECgln (pBluescript II SK+), continuous culture; YMC11 is the expression strain named for this plasmid
T2 sequence (P0A9C5 2-469 limits assumed): T1 sequence (P0A9C5 2-469 S54A/Y398V limits assumed) with A53S, V397Y
Protocol: as §1, §2, §3, §4

[3] = target: T3, deadenylylated WT enzyme, WT (DD) glutamine synthetase (Escherichia coli, UniProt P0A9C5); details: 1 mM inhibitor; for % Reduction in ADP-based Specific Activity / % Reduction in Glutamine-based Specific Activity: 60 min pre-incubation, vs no-inhibitor control, positive = activity increased; for % Conversion: glutamine-based divided by ADP-based specific activity
T3 construct: made in house; host or cells: E. coli carrying pBSK-ECgln (pBluescript II SK+), continuous culture; YMC11 is the expression strain named for this plasmid
T3 sequence (P0A9C5 2-469 limits assumed): T1 sequence (P0A9C5 2-469 S54A/Y398V limits assumed) with A53S, V397Y
Protocol: as §1, §2, §3, §4

SMILES | % Reduction in ADP-based Specific Activity ([1]; Mn assay) | % Reduction in Glutamine-based Specific Activity ([1]; Mn assay) | % Conversion ([1]; Mn assay) [%] | % Reduction in ADP-based Specific Activity ([2]; Mg assay) | % Reduction in Glutamine-based Specific Activity ([2]; Mg assay) [%] | % Conversion ([2]; Mg assay) [%] | % Reduction in ADP-based Specific Activity ([2]; Mn assay) [%] | % Reduction in Glutamine-based Specific Activity ([2]; Mn assay) [%] | % Conversion ([2]; Mn assay) [%] | inhibition of the enzyme (in words) [2] | % Reduction in ADP-based Specific Activity ([3]; Mg assay) [%] | % Reduction in Glutamine-based Specific Activity ([3]; Mg assay) [%] | % Conversion ([3]; Mg assay) [%] | % Reduction in ADP-based Specific Activity ([3]; Mn assay) [%] | % Reduction in Glutamine-based Specific Activity ([3]; Mn assay) [%] | % Conversion ([3]; Mn assay) [%] | inhibition of the enzyme (in words) ([1]; HPLC assays) | % Reduction in ADP-based Specific Activity ([1]; Mg assay) [%] | % Reduction in Glutamine-based Specific Activity ([1]; Mg assay) [%]
O=S(=O)(F)Cc1ccccc1 [PMSF] | +39.67% | +6.07% | 63 | +48.13% | −46.33 | 42 | −15.63 | −49.20 | 61 | found to inhibit | −6.07 | −16.55 | 67 | −3.53 | −17.69 | 78 | – | – | –
NCCc1ccc(S(=O)(=O)F)cc1 [AEBSF] | +14.80% | +5.16% | 75 | −34.60% | −24.59 | 134 | −26.76 | −14.86 | 118 | appeared to cause inhibition | −14.98 | −8.43 | 82 | −4.73 | −2.23 | 94 | appeared to cause inhibition | −100.00 | −55.60
